The values below come from PMC7946228, “Discovery of novel candidates for anti-liposarcoma therapies by medium-scale high-throughput drug screening” (PLoS ONE, 2021).

Like-named read-outs stand apart in the source and are kept apart here.

Series [1] has as its system FU-DDLS-1 liposarcoma cell line. In words: CellTiter-Glo viability, GR50, 72h. The format is cell-based, human. Particulars: FU-DDL S-1, 72h, read-out: Half maximum effective concentration corrected for cell growth (GR50). On the procedure:
(§1) Cell viability was measured using the CellTiter-Glo Luminescent Cell Viability Assay (Promega, Wisconsin, United States). For each experiment the same cell numbers were seeded as for the proliferation experiments. Seven drug concentrations were used, starting from 100μM with 10-fold dilutions and also a vehicle control appropriate for each drug (DMSO or ethanol). After 72h of drug or vehicle control treatment levels of ATP were measured with CellTiter-Glo. The data from six to nine biological replicates, each with three technical replicates were collected. A nonlinear regression model with different four-parameter log-logistic function was used for modelling of the drug dose-response using ‘GRmetrics’ R package version 1.8.1 [26]. The calculated GR50 metric is equivalent to the IC50 metric but takes into account the growth rate of cells. Therefore, it estimates better the effect of the compound on cell viability and allows for comparison between different cell lines with different growth rates.
(In general: ATP-based viability assays read luminescence as a measure of living cells.)

Series [2] relates to GOT3 liposarcoma cell line. In words: CellTiter-Glo viability, GR50, 72h. It is filed as cell-based, human. Particulars: GOT3, 72h, read-out: Half maximum effective concentration corrected for cell growth (GR50). On the procedure:
as §1

For series [3], the system named is LPS141 liposarcoma cell line. In words: CellTiter-Glo viability, GR50, 72h. The format is cell-based, human. Particulars: LPS 141, 72h, read-out: Half maximum effective concentration corrected for cell growth (GR50). How it is done: as §1
The test system of series [4] is LPS510 liposarcoma cell line. In words: CellTiter-Glo viability, GR50, 72h. It is filed as cell-based, human. The note with it: LPS 510, 72h, read-out: Half maximum effective concentration corrected for cell growth (GR50). On the procedure:
as §1

In series [5] the test system is LPS853 liposarcoma cell line. In words: CellTiter-Glo viability, GR50, 72h. The format is cell-based, human. The note with it: LPS 853, 72h, read-out: Half maximum effective concentration corrected for cell growth (GR50). How it is done:
as §1

Series [6] has as its system LS2 liposarcoma cell line. In words: CellTiter-Glo viability, GR50, 72h. It is filed as cell-based, human. Particulars: LS2, 72h, read-out: Half maximum effective concentration corrected for cell growth (GR50). How it is done:
as §1

For series [7], the system named is LiSa-2 liposarcoma cell line. In words: CellTiter-Glo viability, GR50, 72h. The note with it: LiSa-2, 72h, read-out: Half maximum effective concentration corrected for cell growth (GR50). The format is cell-based, human. How it is done:
as §1

In series [8] the test system is NRH-LS1 liposarcoma cell line. In words: CellTiter-Glo viability, GR50, 72h. It is filed as cell-based, human. Particulars: NRH-LS1, 72h, read-out: Half maximum effective concentration corrected for cell growth (GR50). How it is done: as §1
Series [9] has as its system SA-4 liposarcoma cell line. In words: CellTiter-Glo viability, GR50, 72h. The format is cell-based, human. The note with it: SA-4, 72h, read-out: Half maximum effective concentration corrected for cell growth (GR50). On the procedure: as §1
Series [10] deals with SW872 liposarcoma cell line. In words: CellTiter-Glo viability, GR50, 72h. The format is cell-based, human. Particulars: SW 872, 72h, read-out: Half maximum effective concentration corrected for cell growth (GR50). How it is done: as §1
Series [11] relates to T1000 liposarcoma cell line. In words: CellTiter-Glo viability, GR50, 72h. The format is cell-based, human. The note with it: T1000, 72h, read-out: Half maximum effective concentration corrected for cell growth (GR50). How it is done: as §1
Series [12] concerns T449 liposarcoma cell line. In words: CellTiter-Glo viability, GR50, 72h. The format is cell-based, human. The note with it: T449, 72h, read-out: Half maximum effective concentration corrected for cell growth (GR50). On the procedure:
as §1

In series [13] the test system is T778 liposarcoma cell line. In words: CellTiter-Glo viability, GR50, 72h. The format is cell-based, human. Particulars: T778, 72h, read-out: Half maximum effective concentration corrected for cell growth (GR50). On the procedure: as §1
The subject of series [14] is liposarcoma cell lines. In words: TUNEL apoptosis assay by flow cytometry. It is filed as cell-based, human. Particulars: growth arresting concentration, 17-72h, majority of cell lines. On the procedure:
(§2) Cells were treated with drugs at the concentrations corresponding to previously established growth arresting concentrations and collected between 17 and 72h. Time of collection was individual for every drug/cell line combination; cells were collected after the beginning of complete growth inhibition (based on the growth curves data) but only when first signs of morphological change or cell death were visible (estimated microscopically approximately every 2h). After methanol fixation, cells were barcoded with different combinations of Pacific Blue/Pacific Orange dyes (Thermo Fisher Scientific) for different drug treatments. After mixing, cells were incubated in the TUNEL reaction mix for 1h at 37°C, according to the manufacturer’s instructions (Roche, Germany), stained with Streptavidin-Cy5 conjugated Ab and digested with RNAse. Cells were counter-stained with propidium iodide and analyzed using LSR II Flow Cytometer (BD Biosciences, NJ, USA. The data were processed with FlowJo Version 7.6.5 (Tree Star, Ashland, USA). The gating strategy is presented in Fig 3A. Cy-5 positive cells (as compared to control sample) were calculated as apoptotic. Cell cycles of non-apoptotic cells were analyzed using the built in FlowJo Cell Cycle Analysis module. Three independent biological replicates were done for each cell line/drug combination with exception of FU-DDLS-1 and T1000 –for which we only had two replicates available.
In general terms: A flow cytometer gives signals particle by particle.

Series [15] has as its system liposarcoma cell lines. In words: Cell cycle analysis of non-apoptotic cells (propidium iodide). It is filed as cell-based, human. Particulars: growth arresting concentration, non-apoptotic fraction. On the procedure: as §2
The subject of series [16] is liposarcoma cell lines. In words: Drug withdrawal, reversibility of growth arrest. The note with it: for reversibility of growth inhibition after drug removal: then 72h without drug, except T778 with MLN9708. The format is cell-based, human. On the procedure:
(§3) The cellular proliferation rate was measured using the IncuCyte ZOOM live-cell imaging system (Essen Bioscience, Birmingham, UK) with the corresponding software application (version 2013BRev1). First the growth rate for each cell line was established to estimate the seeding numbers of cells corresponding to 15–30% of confluence at the start of the experiment and maximum 70% after 72h. The drug treatment was initiated approximately 18h after seeding. The proliferation rate was measured as cell confluence over time through the acquisition of photographs under phase contrast every third hour for the entire duration of the drug treatment. During the drug treatment, media were not changed, and cells were not split. The growth reducing drug concentration was defined as lowest drug concentration leading to significant decrease of cellular growth between 40 and 72h after start of treatment. To determine that concentration, plots were generated using IncuCyte software and differences in growth between 40 and 72h were calculated using least-square means with the ‘emmeans’ R package version 1.4.3 [25]. Growth arresting concentrations were defined as minimal drug concentration under which cell confluence between 96 and 120h increases by less than 3%. Though growth arrest occurred much earlier, these time points ensured that the growth arrest is a stable phenomenon. These growth arresting concentrations were used for drug withdrawal, apoptosis and cell cycle experiments. All the data were verified with the plots. The presented values correspond to median values from two (T449, all compounds) to five (all cell lines, triptolide) biological replicates.
An important prerequisite for clinical implementation of these compounds as treatment for liposarcoma is irreversibility of the induced growth inhibition. We thus assessed if the drugs were only transiently cytostatic, which is especially important in case of the compounds that seem to work mainly via cell cycle arrest (APO866, GSK2126458). Cells were treated with the compounds at growth arresting concentrations for 120h after which the compounds were removed and cell numbers were monitored for another 72h. […] To irreversibly arrest cell proliferation GSK2126458 had to be used at 10x higher concentrations (100x for GOT3) (S5 Fig). Those concentrations are above physiological ranges (see Table 2), and these effects should be accounted for assessing use of GSK2126458 in clinic.

The conditions of series [17]: cited from earlier work.
Series [18] deals with liposarcoma cell lines. In words: IncuCyte cell proliferation assay (growth reducing/arresting concentration). It is filed as cell-based, human. Particulars: complete growth arrest between 96 and 120h. How it is done: as §3, with “15-30%” for “15–30%”, “'[…]” for “‘emmeans’ R”, “([…],” for “(T449,”
Setting [19] is: 120h treatment at growth arresting concentration.
The mark [20] stands for this setting: intravenous, phase I, maximum tolerated dose.

As for `COc1ncc(-c2ccc3nccc(-c4ccnnc4)c3c2)cc1NS(=O)(=O)c1ccc(F)cc1F` [GSK2126458], the IC50 in [1] (Homo sapiens) came out at 96 nM; in [2] (Homo sapiens) it was 28 nM; in series [3] (Homo sapiens, LPS141), 182 nM; in series [4] (Homo sapiens), 82 nM; in series [5] (Homo sapiens), 50 nM; in series [6] (Homo sapiens), 110 nM. In addition, the IC50 came out at 54 nM in series [7] (Homo sapiens); 469 nM in series [8] (Homo sapiens); 86 nM in series [9] (Homo sapiens); 401 nM in [10] (Homo sapiens, SW872); 14 nM in series [11] (Homo sapiens); 10 nM in [12] (Homo sapiens). Moreover, the IC50 in series [13] (Homo sapiens) came to 52 nM. For the same compound, the “apoptosis (increase in % of apoptotic cells)” value with liposarcoma cell lines [14] is at most 5%. Besides, the “cell cycle phase in which cells are blocked” value with liposarcoma cell lines [15] is “G1 phase”. In addition, the “reversibility of growth inhibition after drug removal” value with liposarcoma cell lines [16] (setting [19]) is “All of the tested cell lines regained their growth rate”. For the same compound, in the series on liposarcoma cell lines [16] (all tested cell lines, 120h treatment at growth arresting concentration), the “time to regain growth rate after withdrawal” value is recorded as at most 3 h. Also, the “concentration needed for irreversible growth arrest relative to growth arresting concentration” value in the series with liposarcoma cell lines [16] (cell lines that resumed growth, 100x for GOT3 with GSK2126458) is reported as 10 x higher. Moreover, the Cmax is around 100 nM in series [17] (phase I trial of multiple tumor types) and 100 nM in series [17] (read-out: clinically relevant concentration (Cmax or Css), values show Cmax or Css (italics), patients).
For the compound `CC(C)C[C@H](NC(=O)CNC(=O)c1cc(Cl)ccc1Cl)B1OC(=O)C(CC(=O)O)(CC(=O)O)O1` [MLN9708], the IC50 in series [1] is 635 nM; in [2], 99 nM; in [3], 522 nM; in [4], 841 nM; in series [5], 95 nM; in series [6] it was 629 nM. For the same compound, the IC50 in [7] amounted to 745 nM; in [8], 743 nM; in series [9], 325 nM; in series [10] it was 553 nM; in series [11] it was 463 nM; in [12], 1030 nM. Further, the IC50 in series [13] was determined as 774 nM. Besides, the “concentration required to completely arrest more than half of the cell lines” value in the series with liposarcoma cell lines [18] is given as “at least 1 μM”. Further, the “apoptosis (increase in % of apoptotic cells)” value with liposarcoma cell lines [14] was “above 5%”. The “cell cycle phase in which cells are blocked” value with liposarcoma cell lines [15] is on record as “less specific arrest”. The “reversibility of growth inhibition after drug removal” value in the series on liposarcoma cell lines [16] (setting [19]) is reported as “irreversibly inhibited growth of all tested cell lines”. The Cmax in series [17] (human, in vivo) was 30 to 300 nM; in series [17] (setting [20]), at most 1400 nM. Moreover, the Css in [17] (setting [20]) is 30 to 300 nM.
